35 compounds from US9527850B2, “Benzyl piperidine compounds as lysophosphatidic acid (LPA) receptor antagonist” (Merck Patent GmbH, priority 2011, dated 2016) can be followed below.

Each structure is given as a SMILES string.

The IC50 is the concentration needed to halve the response being measured.

The assay deals with T1, LPA2 receptor (LPA2R) (Homo sapiens, UniProt Q9HBW0).
T1 construct: expressed in transfected cells; host or cells: U2OS
The assay can be described thus: LPA2R-Calciumflux assay (intracellular calcium mobilisation, FLIPR). The format is cell-based. To be noted: U2OS cells recombinant expressing LPA2R; inhibition of LPA-induced Ca-flux; 10 concentrations 30 uM to 1 nM, 1% DMSO. An excerpt: The assay detects intra cellular calcium which is generated by cells upon activation of the LPA2 receptor by its ligand LPA. This transient calcium mobilization can be monitored using a commercial calcium detection kit (e.g. from Molecular Devices). The main component of such a kit is a dye, which becomes fluorescent when calcium is present—a transient fluorescence signal after laddition of a ligand to a test well are the result. Readers like the FLIPR (Molecular Devices) can be used to monitor such transient “Ca-flux” signals.
The signals are calculated according to peak maximum minus base line.
The assay is performed in microplates (384 wells per plate).
LPA2R-Calciumflux Assay Protocol
The assay is run according to the following procedure: • 50 uL seed cells (10000 cells/well in DMEM buffer) • Incubate 24 h at 37° C., 10% CO2 • aspirate medium • 50 uL add calcium dye 1×HBSS/HEPES buffer • incubate 1 h at 37° C. (“loading”) • equilibrate 10 min at RT • 5 uL add compounds in HEPES buffer • shake 10 sec. at 1000 rpm • incubate 15 min at RT • 20 uL add LPA (in the FLIPR Tetra) in Krebs-buffer/BSA & measurement
The cells are seeded in DMEM buffer (DMEM, 10% FCS, 10 mM HEPES, 1% Pen/Strep).
Dye loading is done in HBSS/HEPES buffer (100 mL 10×HBSS+20 mL 1M HEPES+880 mL water, pH 7.4)
The LPA is added in Krebs/BSA buffer (120 mM NaCl, 5 mM KCl, 0.62 mM MgSO4, 1.8 mM CaCl2, 10 mM HEPES, 6 mM D(+)-Glucose, 0.2% BSA, pH 7.4).
The compounds are pre-diluted in HEPES buffer (20 mM, pH 7.4), whereby the final DMSO content in the assay is kept at 1%. The compounds are pre-diluted in order to generate dose response series on the microplates. The dose response series consist of 10 concentrations for each compound from 30 uM final to 1 nM final. From all compound wells the resulting signals are referred to control wells (located on each plate besides the compound wells) in terms of % activity.
From these % activity values—along with the corresponding compound concentrations—IC50 values are fitted for each compound using standard fitting programs such as Graphpad Prism. Here the method “log(inhibitor) vs. response—Variable slope” is used.

T1 sequence (Q9HBW0 whole entry): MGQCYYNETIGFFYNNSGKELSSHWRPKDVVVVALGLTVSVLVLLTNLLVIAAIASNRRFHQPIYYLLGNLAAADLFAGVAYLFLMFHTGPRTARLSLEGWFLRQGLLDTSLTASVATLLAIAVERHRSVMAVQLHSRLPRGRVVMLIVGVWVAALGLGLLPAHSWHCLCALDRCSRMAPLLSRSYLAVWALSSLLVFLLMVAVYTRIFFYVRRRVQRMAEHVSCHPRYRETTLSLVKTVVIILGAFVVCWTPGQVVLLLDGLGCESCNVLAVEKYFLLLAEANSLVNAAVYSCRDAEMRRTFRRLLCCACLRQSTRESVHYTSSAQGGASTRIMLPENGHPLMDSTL

In the case of `Cc1ccc(CN2C(C)CCCC2c2cc3cc(F)ccc3[nH]2)cc1` (centres unmarked) [compound 46, 5-Fluoro-2-[6-methyl-1-(4-methyl-benzyl)-piperidin-2-yl]-1H-indole], the IC50 lay within 0.5 to 5 µM.
The same measure for `COc1ccc(CN2CCCCC2c2nc3cc(F)ccc3[nH]2)cc1` (centres unmarked) [compound 47]: 0.5 to 5 µM; for `COc1ccc(CN2CCCCC2c2cc3ccccc3o2)cc1` (centres unmarked) [compound 48, 2-Benzofuran-2-yl-1-(4-methoxy-benzyl)-piperidine]: 0.5 to 5 µM.
As to `Fc1ccc(CN2CCCCC2c2nc3cc(F)ccc3[nH]2)cc1` (centres unmarked) [compound 49, 5-Fluoro-2-[1-(4-fluoro-benzyl)-piperidin-2-yl]-1H-benzo-imidazole], the IC50 is < 0.5 µM.
Regarding `Cc1ccc(CN2CCCCC2c2cc3ccccc3o2)cc1C` (centres unmarked) [compound 50, 2-Benzofuran-2-yl-1-(3,4-dimethyl-benzyl)-piperidine], the IC50 lay in the range of 0.5 to 5 µM.
`Cc1ccc(CN2CCCCC2c2nc3cc(F)ccc3[nH]2)cc1C` (centres unmarked) [compound 51, 2-[1-(3,4-Dimethyl-benzyl)-piperidin-2-yl]-5-fluoro-1H-benzo-imidazole]: the half-inhibitory concentration (IC50) was < 0.5 µM.
`Cc1ccc(CN2CCCCC2c2nc3ccccc3s2)cc1C` (centres unmarked) [compound 52, 2-[1-(3,4-Dimethyl-benzyl)-piperidin-2-yl]-benzo-thiazole]: the IC50 lay within 5 to 15 µM.
Regarding `Fc1ccc2[nH]c(C3CCCCN3Cc3cccc(Cl)c3Cl)cc2c1` (centres unmarked) [compound 54, 2-[1-(2,3-Dichloro-benzyl)-piperidin-2-yl]-5-fluoro-1H-indole], the IC50 was 0.5 to 5 µM.
Take `COc1cc(CN2CCCCC2c2cc3cc(F)ccc3[nH]2)cc(OC)c1` (centres unmarked) [compound 55, 2-[1-(3,5-Dimethoxy-benzyl)-piperidin-2-yl]-5-fluoro-1H-indole]: the IC50 lay within 0.5 to 5 µM.
As for `Fc1ccc2[nH]c(C3CCCCN3Cc3ccccn3)cc2c1` (centres unmarked) [compound 56, 5-Fluoro-2-(1-pyridin-2-ylmethyl-piperidin-2-yl)-1H-indole], the IC50 is 0.5 to 5 µM.
As to `Fc1ccc2[nH]c(C3CCCCN3Cc3cccc(Br)c3)cc2c1` (centres unmarked) [compound 57, 2-[1-(3-Bromo-benzyl)-piperidin-2-yl]-5-fluoro-1H-indole], the IC50 lay in the range of 0.5 to 5 µM.
As for `Fc1ccc2[nH]c(C3CCCCN3Cc3ccc(Br)cc3)cc2c1` (centres unmarked) [compound 58, 2-[1-(4-Bromo-benzyl)-piperidin-2-yl]-5-fluoro-1H-indole], the IC50 was 0.5 to 5 µM.
The figure for `Fc1ccc2[nH]c(C3CCCCN3Cc3ccc(Cl)cc3Cl)cc2c1` (centres unmarked) [compound 59, 2-[1-(2,4-Dichloro-benzyl)-piperidin-2-yl]-5-fluoro-1H-indole] is 5 to 15 µM; for `Fc1ccc2[nH]c(C3CCCCN3Cc3ccc(Cl)c(Cl)c3)cc2c1` (centres unmarked) [compound 60, 2-[1-(3,4-Dichlorobenzyl)-piperidin-2-yl]-5-fluoro-1H-indole] it is 5 to 15 µM.
Consider `CC1CCC(c2cc3cc(F)ccc3[nH]2)N(Cc2ccc(F)cc2)C1` (centres unmarked) [compound 61, 5-Fluoro-2-[1-(4-fluoro-benzyl)-5-methyl-piperidin-2-yl]-1H-indole], for which the IC50 is 0.5 to 5 µM.
As to `COc1cccc(CN2CC(C)CCC2c2cc3cc(F)ccc3[nH]2)c1` (centres unmarked) [compound 62, 5-Fluoro-2-[1-(3-methoxy-benzyl)-5-methyl-piperidin-2-yl]-1H-indole], the IC50 was 5 to 15 µM.
For the compound `Fc1ccc2[nH]c(C3CCCCN3Cc3c[nH]c4ccccc34)cc2c1` (centres unmarked) [compound 63, 5-Fluoro-2-[1-(1H-indol-3-ylmethyl)-piperidin-2-yl]-1H-indole], the IC50 lay within 0.5 to 5 µM.
On to `COc1ccc(CN2CCC(C)CC2c2cc3cc(F)ccc3[nH]2)cc1` (centres unmarked) [compound 64, 5-Fluoro-2-[1-(4-methoxy-benzyl)-4-methyl-piperidin-2-yl]-1H-indole], for which the IC50 lay in the range of 0.5 to 5 µM.
In the case of `Cc1ccc2c(c1)c(CN1CCCCC1c1cc3cc(F)ccc3[nH]1)cn2C` (centres unmarked) [compound 65, 3-[2-(5-Fluoro-1H-indol-2-yl)-piperidin-1-ylmethyl]-1,5-dimethyl-1H-indole], the IC50 is 0.5 to 5 µM.
On to `Cc1ccc2c(CN3CCCCC3c3cc4cc(F)ccc4[nH]3)cn(C)c2c1` (centres unmarked) [compound 66, 3-[2-(5-Fluoro-1H-indol-2-yl)-piperidin-1-ylmethyl]-1,6-dimethyl-1H-indole], for which the IC50 fell in the range of 0.5 to 5 µM.
The same measure for `Brc1ccc(CN2CCCCC2c2cc3ccccc3[nH]2)cc1` (centres unmarked) [compound 67, 2-[1-(4-Bromo-benzyl)-piperidin-2-yl]-1H-indole]: 0.5 to 5 µM; for `COc1ccc(CN2CCC(C)CC2c2cc3ccccc3[nH]2)cc1` (centres unmarked) [compound 68, 2-[1-(4-Methoxy-benzyl)-4-methyl-piperidin-2-yl]-1H-indole]: 0.5 to 5 µM; for `Cc1cc(C)c2cc(C3CCCCN3Cc3ccc(F)cc3)[nH]c2c1` (centres unmarked) [compound 69, 2-[1-(4-Fluoro-benzyl)-piperidin-2-yl]-4,6-dimethyl-1H-indole]: 0.5 to 5 µM.
Regarding `Cc1ccc2[nH]c(C3CCCCN3Cc3ccc(F)cc3)cc2c1` (centres unmarked) [compound 70], the IC50 fell in the range of 0.5 to 5 µM.
For the compound `COc1cccc(CN2CCCCC2c2cc3cc(C)ccc3[nH]2)c1` (centres unmarked) [compound 71, 2-[1-(3-Methoxy-benzyl)-piperidin-2-yl]-5-methyl-1H-indole], the IC50 lay in the range of 0.5 to 5 µM.
`CC(c1ccc(F)cc1)N1CCCCC1c1cc2cc(F)ccc2[nH]1` (centres unmarked) [compound 72, 5-Fluoro-2-{1-[1-(4-fluoro-phenyl)-ethyl]-piperidin-2-yl}-1H-indole]: the concentration for half-maximal inhibition (IC50) is < 0.5 µM.
The figure for `COc1ccc(CN2CCCCC2c2cc3cc(Cl)ccc3[nH]2)cc1` (centres unmarked) [compound 73, 5-Chloro-2-[1-(4-methoxy-benzyl)-piperidin-2-yl]-1H-indole] is < 0.5 µM; for `COc1cccc(CN2CCC(C)CC2c2cc3cc(Cl)ccc3[nH]2)c1` (centres unmarked) [compound 74, 5-Chloro-2-[1-(3-methoxy-benzyl)-4-methyl-piperidin-2-yl]-1H-indole] it is 0.5 to 5 µM.
Consider `Cc1c(C2CCCCN2Cc2ccc(F)cc2)[nH]c2ccc(F)cc12` (centres unmarked) [compound 75, 5-Fluoro-2-[1-(4-fluoro-benzyl)-piperidin-2-yl]-3-methyl-1H-indole], for which the concentration for half-maximal inhibition (IC50) was < 0.5 µM.
Take `COc1ccc(CN2CCCC(C)C2c2cc3c4c(ccc3[nH]2)CCC4)cc1` (centres unmarked) [compound 76, 2-[1-(4-Methoxy-benzyl)-3-methyl-piperidin-2-yl]-3,6,7,8-tetrahydro-cyclopenta [e]indole]: the IC50 was in the range of 5 to 15 µM.
With `Cc1ccc(CN2CCC(C)CC2c2cc3ccccc3[nH]2)cc1C` (centres unmarked) [compound 79, 2-[1-(3,4-Dimethyl-benzyl)-4-methyl-piperidin-2-yl]-1H-indole], the IC50 lay within 0.5 to 5 µM.
In the case of `CC1CCCN(Cc2ccc(F)cc2)C1c1cc2ccccc2[nH]1` (centres unmarked) [compound 81, 2-[1-(4-Fluoro-benzyl)-3-methyl-piperidin-2-yl]-1H-indole], the IC50 lay within 0.5 to 5 µM.
As to `COc1cccc(CN2CCCCC2c2cc3cc(OC)ccc3[nH]2)c1` (centres unmarked) [compound 82, 5-Methoxy-2-[1-(3-methoxy-benzyl)-piperidin-2-yl]-1H-indole], the IC50 is < 0.5 µM.
Consider `COc1ccc2[nH]c(C3CC(C)CCN3Cc3ccc(C)c(C)c3)cc2c1` (centres unmarked) [compound 83, 2-[1-(3,4-Dimethyl-benzyl)-4-methyl-piperidin-2-yl]-5-methoxy-1H-indole], for which the IC50 is 0.5 to 5 µM.
For `Cc1cc(C)cc(CN2CCCCC2c2cc3cc(F)ccc3[nH]2)c1` (centres unmarked) [compound 84, 2-[1-(3,5-Dimethyl-benzyl)-piperidin-2-yl]-5-fluoro-1H-indole], the IC50 was < 0.5 µM.
